SMILES strings stand for the structures.

The target in this test is T1, JNK3 (Homo sapiens, UniProt P53779).
T1 construct: One such construct encodes amino acid residues Ser40-Glu402 of JNK3α1 and is preceded by Met and Gly residues; Met-Gly (initiation methionine plus glycine added for the NcoI site); made in house; host or cells: E. coli BL21 (DE3)
T1 sequence (P53779 40-402): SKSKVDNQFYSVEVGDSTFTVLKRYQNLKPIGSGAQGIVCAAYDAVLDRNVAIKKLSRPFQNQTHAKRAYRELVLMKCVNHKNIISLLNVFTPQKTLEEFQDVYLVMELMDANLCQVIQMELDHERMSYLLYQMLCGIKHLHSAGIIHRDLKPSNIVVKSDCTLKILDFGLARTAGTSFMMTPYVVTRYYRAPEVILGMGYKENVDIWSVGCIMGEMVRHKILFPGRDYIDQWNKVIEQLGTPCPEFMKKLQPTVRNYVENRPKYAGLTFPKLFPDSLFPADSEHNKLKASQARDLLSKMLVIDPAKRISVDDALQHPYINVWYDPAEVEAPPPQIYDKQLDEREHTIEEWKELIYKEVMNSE
Briefly: JNK inhibition assay: spectrophotometric coupled-enzyme assay with activated JNK3. It is filed as biochemical. Particulars: activated JNK3 10 nM, 10 μM ATP, 200 μM EGF receptor peptide, 30° C., competitive inhibition model. From the text: A BLAST search of the EST database using the published JNK3α1 cDNA as a query identified an EST clone (#632588) that contained the entire coding sequence for human JNK3α1. Polymerase chain reactions (PCR) using pfu polymerase (Strategene) were used to introduce restriction sites into the cDNA for cloning into the pET-15B expression vector at the NcoI and BamHI sites. The protein was expressed in E. coli. […] This truncation corresponds to Ser 2 of JNK1 and JNK2 proteins, and is preceded by a methionine (initiation) and a glycine residue. The glycine residue was added in order to introduce an NcoI site for cloning into the expression vector. In addition, systematic C-terminal truncations were performed by PCR to identify a construct that give rise to diffraction-quality crystals.
5 mg of JNK3 was diluted to 0.5 mg/ml in 50 mM HEPES buffer, pH 7.5, containing 100 mM NaCl, 5 mM DTT, 20 mM MgCl2 and 1 mM ATP. GST-MKK7(DD) was added at a molar ratio of 1:2.5 GST-MKK7:JNK3. After incubation for 30 minutes at 25° C., the reaction mixture was concentrated 5-fold by ultrafiltration in a Centriprep-30 (Amicon, Beverly, Mass.), diluted to 10 ml and an additional 1 mM ATP added. This procedure was repeated three times to remove ADP and replenish ATP. The final addition of ATP was 5 mM and the mixture incubated overnight at 4° C.
The activated JNK3/GST-MKK7(DD) reaction mixture was exchanged into 50 mM HEPES buffer, pH 7.5, containing 5 mM DTT and 5% glycerol (w/v) by dialysis or ultrafiltration. The reaction mixture was adjusted to 1.1 M potassium phosphate, pH 7.5, and purified by hydrophobic interaction chromatography (at 25° C.) using a Rainin Hydropore column. […] Activated JNK3 (i.e. doubly phosphorylated JNK3) was stored at −70° C. at 0.25-1 mg/ml.
Compounds were assayed for the inhibition of JNK3 by a spectrophotometric coupled-enzyme assay. In this assay, a fixed concentration of activated JNK3 (10 nM) was incubated with various concentrations of a potential inhibitor dissolved in DMSO for 10 minutes at 30° C. in a buffer containing 0.1 M HEPES buffer, pH 7.5, containing 10 mM MgCl2, 2.5 mM phosphoenolpyruvate, 200 μM NADH, 150 μg/mL pyruvate kinase, 50 μg/mL lactate dehydrogenase, and 200 μM EGF receptor peptide. […] The reaction was initiated by the addition of 10 μM ATP and the assay plate is inserted into the spectrophotometer's assay plate compartment that was maintained at 30° C. The decrease of absorbance at 340 nm was monitored as a function of time. The rate data as a function of inhibitor concentration was fitted to competitive inhibition kinetic model to determine the Ki.
As usually defined, the Ki is the equilibrium dissociation constant of an inhibitor or competing ligand from its target. As for `O=C1/C(=N\O)c2cc([N+](=O)[O-])ccc2N1Cc1cc(F)cc2c1OCOC2` [Compound 284], the Ki was ≥ 1000 nM. The value for `O=C(Nc1ccc2c(c1)N(Cc1cc(F)cc3c1OCOC3)C(=O)/C2=N\O)c1ccc(F)cc1F` [Compound 249] was < 1000 nM; that for `Cc1cc(F)ccc1C(=O)c1ccc2c(c1)/C(=N/O)C(=O)N2Cc1cc(F)cc2c1OCOC2` [Compound 319] was < 1000 nM; that for `COc1ccc(C(=O)Nc2ccc3c(c2)N(Cc2cc(F)cc4c2OCOC4)C(=O)/C3=N/O)cc1OCc1ccccc1` [Compound 321] was < 1000 nM. For `O=C(Nc1ccc2c(c1)N(Cc1cc(F)cc3c1OCOC3)C(=O)/C2=N\O)c1cccc(Cl)c1Cl` [Compound 251], the Ki was < 1000 nM. As to `COC(=O)c1cccc(CN2C(=O)/C(=N/O)c3ccc(-c4ccsc4)cc32)c1` [Compound 185], the Ki was ≥ 1000 nM. As for `COc1ccc(S(=O)(=O)Nc2ccc3c(c2)N(Cc2cc(F)cc4c2OCOC4)C(=O)/C3=N\O)cc1` [Compound 265], the Ki was ≥ 1000 nM. `COc1cc(CN2C(=O)/C(=N\O)c3cc(F)ccc32)cc(OC)c1` [Compound 84]: the Ki was < 1000 nM. With `COc1cc(CN2C(=O)/C(=N\O)c3cc(Cl)cc(C)c32)cc(OC)c1` [Compound 102] the figure was < 1000 nM; with `COc1ccc(CN2C(=O)/C(=N\O)c3ccccc32)cc1` [Compound 61], ≥ 1000 nM; with `O=C1/C(=N\O)c2ccccc2N1Cc1ccccc1F` [Compound 21], ≥ 1000 nM. Take `O=C1/C(=N\O)c2cc([N+](=O)[O-])ccc2N1Cc1ccc(Cl)cc1` [Compound 12]: the Ki is ≥ 1000 nM.

Consider `N#Cc1cccc2c1/C(=N/O)C(=O)N2Cc1cc(F)cc2c1OCOC2` [Compound 212], for which the Ki was ≥ 1000 nM.

For the compound `Nc1cccc(-c2ccc3c(c2)/C(=N/O)C(=O)N3Cc2cc(F)cc3c2OCOC3)c1` [Compound 280], the Ki was ≥ 1000 nM. The value for `O=C1/C(=N\O)c2cc(N(CC3CCCCC3)CC3CCCCC3)ccc2N1Cc1cc(F)cc2c1OCOC2` [Compound 310] was ≥ 1000 nM. Consider `O=C(Nc1ccc2c(c1)N(Cc1cc(F)cc3c1OCOC3)C(=O)/C2=N\O)c1cc(=O)c2ccccc2o1` [Compound 218], for which the Ki was ≥ 1000 nM.

Take `Cc1cc(C)c2c(c1)/C(=N/O)C(=O)N2Cc1ccc(S(C)(=O)=O)cc1` [Compound 93]: the Ki was ≥ 1000 nM. With `COC(=O)c1cccc2c1/C(=N/O)C(=O)N2Cc1cc(F)cc2c1OCOC2` [Compound 244] the figure was ≥ 1000 nM; with `COc1ccc(CN2C(=O)/C(=N\O)c3cc(Cl)cc(C)c32)cc1` [Compound 97], ≥ 1000 nM.

In the case of `O=C(c1ccc2c(c1)/C(=N\O)C(=O)N2Cc1cc(F)cc2c1OCOC2)c1cccc(Cl)c1Cl` [Compound 355], the Ki is < 1000 nM. On to `O=C1/C(=N\O)c2cc(-c3c(F)cccc3F)ccc2N1Cc1ccccc1` [Compound 157], for which the Ki is ≥ 1000 nM. For the compound `O=C1/C(=N\O)c2ccccc2N1Cc1csc(-c2ccc(Cl)cc2)n1` [Compound 71], the Ki was ≥ 1000 nM. Consider `O=C1/C(=N\O)c2cc(N(CCCc3ccccc3)CCCc3ccccc3)ccc2N1Cc1cc(F)cc2c1OCOC2` [Compound 312], for which the Ki was ≥ 1000 nM. Regarding `COc1cccc(C(=O)Nc2ccc3c(c2)/C(=N/O)C(=O)N3Cc2cc(F)cc3c2OCOC3)c1` [Compound 122], the Ki was ≥ 1000 nM. For `COCC(=O)Nc1ccc2c(c1)N(Cc1cc(F)cc3c1OCOC3)C(=O)/C2=N\O` [Compound 214], the Ki is < 1000 nM. On to `Cc1ccc2c(c1)/C(=N/O)C(=O)N2Cc1ccc(Cl)cc1` [Compound 14], for which the Ki is ≥ 1000 nM.

Consider `O=C(Nc1ccc2c(c1)N(Cc1cc(F)cc3c1OCOC3)C(=O)/C2=N/O)c1cccc(Oc2ccccc2)c1` [Compound 320], for which the Ki was ≥ 1000 nM. The value for `O=C1/C(=N\O)c2c(Cl)cc(Cl)cc2N1Cc1cc(F)cc2c1OCOC2` [Compound 196] was < 1000 nM.

For the compound `COc1cc(CN2C(=O)/C(=N\O)c3cc(OC(F)(F)F)ccc32)cc(OC)c1` [Compound 107], the Ki is ≥ 1000 nM.

Consider `COc1cc(CN2C(=O)/C(=N\O)c3c(C)cc(C)cc32)cc(OC)c1` [Compound 166], for which the Ki is < 1000 nM. With `O=C1/C(=N\O)c2ccccc2N1Cc1ncc(C(F)(F)F)cc1Cl` [Compound 70] the figure was ≥ 1000 nM. `Cc1ccc2c(c1)N(Cc1cc(F)cc3c1OCOC3)C(=O)/C2=N\O` [Compound 149]: the Ki is < 1000 nM.

Regarding `Cc1ccc(CN2C(=O)/C(=N\O)c3cc(F)ccc32)cc1` [Compound 56], the Ki was ≥ 1000 nM. Consider `COc1ccccc1-c1nc(CN2C(=O)/C(=N\O)c3ccccc32)no1` [Compound 64], for which the inhibition constant Ki was ≥ 1000 nM. On to `CN(C)CCNC(=O)c1ccc2c(c1)N(Cc1cc(F)cc3c1OCOC3)C(=O)/C2=N\O` [Compound 295], for which the Ki was ≥ 1000 nM. `O=C(c1ccc2c(c1)/C(=N\O)C(=O)N2Cc1cc(F)cc2c1OCOC2)c1ccccc1Cl` [Compound 356]: the Ki is < 1000 nM. With `Cc1cc(C)c2c(c1)/C(=N/O)C(=O)N2Cc1cc(F)cc2c1OCOC2` [Compound 95], the Ki was ≥ 1000 nM.

Regarding `O=C1/C(=N\O)c2cc(Br)ccc2N1Cc1ccc([N+](=O)[O-])cc1` [Compound 25], the inhibition constant (Ki) is ≥ 1000 nM.

For `Cc1ccc(CN2C(=O)/C(=N\O)c3cc(Cl)ccc32)cc1` [Compound 48], the inhibition constant Ki is ≥ 1000 nM. Take `O=C1/C(=N\O)c2ccc(NO)cc2N1Cc1cc(F)cc2c1OCOC2` [Compound 209]: the Ki is < 1000 nM.

For `C[Si](C)(C)C#Cc1cccc2c1/C(=N/O)C(=O)N2Cc1cc(F)cc2c1OCOC2` [Compound 299], the Ki is ≥ 1000 nM. For `O=C1/C(=N\O)c2cc(F)ccc2N1Cc1cc(F)cc2c1OCOC2` [Compound 85], the inhibition constant (Ki) is < 1000 nM. As to `COc1cccc(C(=O)Nc2ccc3c(c2)N(Cc2cc(F)cc4c2OCOC4)C(=O)/C3=N\O)c1` [Compound 250], the Ki was < 1000 nM. As to `Cc1cc(Cl)cc2c1N(Cc1nc3ccccc3[nH]1)C(=O)/C2=N\O` [Compound 111], the inhibitory constant (Ki) was ≥ 1000 nM. On to `COc1cccc(-c2ccc3c(c2)N(Cc2cc(=O)oc4cc(OC)ccc24)C(=O)/C3=N\O)c1` [Compound 175], for which the Ki is ≥ 1000 nM. As for `O=C1/C(=N\O)c2cc(Cl)ccc2N1Cc1ccc(Cl)c(Cl)c1` [Compound 13], the Ki was < 1000 nM. For the compound `COc1cc(CNC(=O)c2ccc3c(c2)N(Cc2cc(F)cc4c2OCOC4)C(=O)/C3=N\O)cc(OC)c1` [Compound 230], the inhibition constant Ki is ≥ 1000 nM. The value for `CCOC(=O)CCNC(=O)c1ccc2c(c1)N(Cc1cc(F)cc3c1OCOC3)C(=O)/C2=N\O` [Compound 296] was ≥ 1000 nM. For `Cc1cc(Cl)cc2c1N(Cc1ccc(S(C)(=O)=O)cc1)C(=O)/C2=N\O` [Compound 101], the Ki is ≥ 1000 nM.

`COc1ccc(C(=O)Nc2ccc3c(c2)N(Cc2cc(F)cc4c2OCOC4)C(=O)/C3=N\O)cc1` [Compound 338]: the Ki is ≥ 1000 nM. The value for `O=C1/C(=N\O)c2ccc(-c3cc4ccccc4o3)cc2N1Cc1cc(F)cc2c1OCOC2` [Compound 318] was < 1000 nM; that for `O=C1/C(=N\O)c2ccc(-c3ccccc3)cc2N1Cc1cc(F)cc2c1OCOC2` [Compound 153] was < 1000 nM; that for `O=C1/C(=N\O)c2ccc(-c3ccccc3C(F)(F)F)cc2N1Cc1cc(F)cc2c1OCOC2` [Compound 314] was ≥ 1000 nM. As to `CCN(Cc1ccccc1)C(=O)c1ccc2c(c1)N(Cc1cc(F)cc3c1OCOC3)C(=O)/C2=N\O` [Compound 242], the Ki is ≥ 1000 nM. As for `O=C(Nc1ccc2c(c1)N(Cc1cc(F)cc3c1OCOC3)C(=O)/C2=N\O)c1csc(C2COc3ccccc3O2)n1` (stereo not shown) [Compound 222], the Ki is ≥ 1000 nM. With `O=C(NCc1cc(Cl)ccc1Cl)c1ccc2c(c1)N(Cc1cc(F)cc3c1OCOC3)C(=O)/C2=N\O` [Compound 236] the figure was ≥ 1000 nM; with `CS(=O)(=O)c1ccc(CN2C(=O)/C(=N\O)c3ccccc32)cc1` [Compound 67], ≥ 1000 nM; with `O=C1/C(=N\O)c2ccc([N+](=O)[O-])cc2N1Cc1cc(F)cc2c1OCOC2` [Compound 207], < 1000 nM.
